Reference: patent publication US10045978B2 (AB SCIENCE, priority 2010, dated 2018)

Tests used:
[1] = test system: patients with indolent mastocytosis with handicap bearing the D816V c-Kit mutation; assay: Example 2 phase 2a study, efficacy; assay type: in vivo, human; set-up: mean reduction of FIS score / mean reduction of pruritus score / mean reduction in frequency of flushes / reduction of daily number of stools / reduction of daily number of micturition / AFIRMM score reduction: concentration or dose not given beside the values; details: week 12
Excerpt: Eligible patients were aged >18 years, had previously documented indolent systemic, smoldering systemic or cutaneous mastocytosis as per the WHO classification with associated disability as the result of mast cell released mediators. Patients had to have a positive D816V c-Kit mutation status, i.e. documented presence of D816V mutation in at least one infiltrated organ including bone marrow or skin. For patients with prior documented presence of D816V mutation in at least one infiltrated organ (bone marrow or skin), no test was performed at the screening visit; however, for those patients without such documentation it was necessary to perform c-Kit molecular analysis prior to randomization. Skin biopsy and optionally (unless patients had no cutaneous lesion) a bone marrow aspirate or biopsy, were performed at baseline to confirm the presence of D816V mutation and to count mast cells in the infiltrated organs. All skin biopsies, bone marrow aspirate or biopsies, performed for this study were sent to the AB Science central laboratory for sequencing and mast cell counting. Patients were classified as having a handicap if after appropriate symptomatic treatments they fulfilled at least one of the following a priori criteria: number of flushes/week ≥7; pruritus score ≥6; number of stools ≥4/day (i.e. diarrhea); micturition frequency ≥8/day (i.e. pollakiuria); Hamilton rating for depression ≥10; Fatigue Impact Scale (FIS) score ≥40; or EORTC quality-of-life questionnaire (QLQ-C30) score ≥60. Patients were excluded if they experienced inadequate organ function defined via blood test levels, or an Eastern Cooperative Oncology Group performance status >2. Other exclusion criteria included: life expectancy <6 months, severe or uncontrolled medical disease, and patients who were pregnant or nursing.
In accordance to the AFIRMM study (Hermine O, et al., 2008, PLoS ONE. 3:e2266), evaluation of treatment response was based upon the change of clinical symptoms associated with a patient's handicaps at week 12 relative to baseline. Efficacy was assessed on the symptoms of mastocytosis. Primary efficacy endpoints were treatment effect on the pruritus score, the number of flushes per week, the Hamilton score, and the Fatigue Impact scale.

[2] = test system: patients with smoldering systemic, indolent systemic or cutaneous mastocytosis with handicap; assay: phase 3 study AB06006, masitinib versus placebo; assay type: in vivo, human
Excerpt: The trial lasted 24 weeks with possible extension. In accordance with protocol amendment version 7.0 (v7), the study population was amended to a more restricted subpopulation of mastocytosis. […] The trial lasted 24 weeks with possible extension. […] To be noted, for the purpose of efficacy analysis a patient was classified as severe if they suffered from at least one of the main handicaps constituting the primary endpoint: […] The criterion of “at least two of the following handicaps” including handicaps on stools and micturition, was relaxed to “at least one of the main handicaps” (i.e. pruritus, flushes, depression and fatigue). […] At each patient evaluation between weeks 8 and 24, each of the above four severe symptoms was evaluated. […] In this case, missing data was imputed as failure (missing=failure as primary analysis). • Case 2: discontinuation for a documented reason excluding toxicity or lack of efficacy. In this case, non-observed values can be considered as Missing At Random (MAR), and no imputation will be done (Observed Cases). • Replacement of missing value for patients present at the visit: If data was missing despite the patient being present at the visit, said missing data was not replaced. Secondary Analysis: […] (asthenia). • A second group comprised patients diagnosed as having severe indolent systemic mastocytosis, severe smoldering systemic mastocytosis, or severe cutaneous mastocytosis. […] This group provides comparative analysis for patient selection according to variant of mastocytosis (i.e. systemic versus cutaneous). • A third group comprised all randomized patients to study AB06006, corresponding therefore to the least restricted population, comprising patients with severe/non severe indolent and smoldering systemic mastocytosis, and severe/non severe cutaneous mastocytosis. This group provides comparative analysis based on patient selection according to severity of mast cell mediator release symptoms. […] ≥40. Diff=absolute difference in response rates between treatment-arms of a given population (masitinib arm minus placebo arm). Factor Diff=ratio of 'Diff' between compared populations showing relative superiority of response rate for severe systemic population over the comparator population. […] ****PF=patients with both pruritus and flushes handicap at baseline.

[3] = patients with this handicap at baseline
[4] = moderate baseline handicap, all patients
[5] = moderate baseline handicap, all patients (n = 110)
[6] = moderate baseline handicap, severe indolent/smoldering systemic
[7] = moderate baseline handicap, severe indolent/smoldering systemic (n = 67)
[8] = moderate baseline handicap, severe systemic vs all patients
[9] = severe baseline handicap, severe cutaneous/indolent/smoldering
[10] = severe baseline handicap, severe cutaneous/indolent/smoldering (n = 110)
[11] = severe baseline handicap, severe indolent/smoldering systemic
[12] = severe baseline handicap, severe indolent/smoldering systemic (n = 67)
[13] = severe baseline handicap, severe systemic vs severe cutaneous/indolent/smoldering

Cc1ccc(NC(=O)c2ccc(CN3CCN(C)CC3)cc2)cc1Nc1nc(-c2cccnc2)cs1 [masitinib, 4-(4-methylpiperazin-1-ylmethyl)-N-[4-methyl-3-(4-pyridin-3ylthiazol-2-ylamino)phenyl]benzamide]
AFIRMM score reduction [1]: 32.0%
Hamilton score improvement ([1]; PP population): 27.0%
mean reduction in frequency of flushes ([1]; PP population): 45.5%
mean reduction of FIS score ([1]; PP population): 51.8%
mean reduction of pruritus score ([1]; PP population): 46.0%
overall response rate (improvement ≥50%) ([1]; PP population (14 of 20 patients)): 70%
patients remaining stable ([1]; PP population (four patients)): 20%
reduction of daily number of stools ([1]; patients with diarrhea at baseline): 41.3%
reduction of daily number of micturition ([1]; patients with pollakiuria at baseline): 30.3%
Hamilton score improvement [1, 3]: 44.3%
mean reduction in frequency of flushes [1, 3]: 55.3%
mean reduction of FIS score [1, 3]: 45.6%
2H[75%] Diff (masitinib arm minus placebo arm) [2, 4]: 2.9%
3H[75%] Diff (masitinib arm minus placebo arm) [2, 4]: 2.3%
4H[75%] Diff (masitinib arm minus placebo arm) [2, 4]: 0.4%
PF Diff (masitinib arm minus placebo arm) [2, 4]: 0.2%
2H[75%] cumulative response [2, 5]: 23.3%
3H[75%] cumulative response [2, 5]: 20.3%
4H[75%] cumulative response [2, 5]: 16.3%
PF cumulative response [2, 5]: 26.9%
2H[75%] Diff (masitinib arm minus placebo arm) [2, 6]: 12.2%
3H[75%] Diff (masitinib arm minus placebo arm) [2, 6]: 12.8%
4H[75%] Diff (masitinib arm minus placebo arm) [2, 6]: 10.1%
PF Diff (masitinib arm minus placebo arm) [2, 6]: 10.7%
2H[75%] cumulative response [2, 7]: 28.2%
3H[75%] cumulative response [2, 7]: 24.8%
4H[75%] cumulative response [2, 7]: 19.6%
PF cumulative response [2, 7]: 28.7%
2H[75%] Factor Diff [2, 8]: 4.2
3H[75%] Factor Diff [2, 8]: 5.6
4H[75%] Factor Diff [2, 8]: 25.3
PF Factor Diff [2, 8]: 53.5
2H[75%] Diff (masitinib arm minus placebo arm) [2, 9]: 7.4%
3H[75%] Diff (masitinib arm minus placebo arm) [2, 9]: 6.3%
4H[75%] Diff (masitinib arm minus placebo arm) [2, 9]: 3.3%
PF Diff (masitinib arm minus placebo arm) [2, 9]: 6.9%
2H[75%] cumulative response [2, 10]: 22.0%
3H[75%] cumulative response [2, 10]: 20.0%
4H[75%] cumulative response [2, 10]: 15.4%
PF cumulative response [2, 10]: 30.6%
2H[75%] Diff (masitinib arm minus placebo arm) [2, 11]: 16.5%
3H[75%] Diff (masitinib arm minus placebo arm) [2, 11]: 15.2%
4H[75%] Diff (masitinib arm minus placebo arm) [2, 11]: 11.1%
PF Diff (masitinib arm minus placebo arm) [2, 11]: 17.8%
2H[75%] cumulative response [2, 12]: 27.2%
3H[75%] cumulative response [2, 12]: 24.9%
4H[75%] cumulative response [2, 12]: 18.6%
PF cumulative response [2, 12]: 35.4%
2H[75%] Factor Diff [2, 13]: 2.2
3H[75%] Factor Diff [2, 13]: 2.4
4H[75%] Factor Diff [2, 13]: 3.4
PF Factor Diff [2, 13]: 2.6
